Read-outs that look alike come from different tables or passages of the source. No end group written: not given here.
Columns and labels:
[1] = Circular dichroism secondary structure (Dichroweb), peptide only; format: physicochemical; settings: 20 °C
Experimental: (§1) Dichroweb software analyzes the secondary structure of LDKA peptides from circular dichroism spectroscope. The table presents the percentage of each helix and strand structure at different temperature. The data are analyzed using CONTIN-LL method and Reference Set 4 (Optimised for 190-240 nm).
(§2) Peptide solutions (peptide concentration is 50 μM) were titrated with POPC and POPG LUVs (50, 100, 250, 500, 1000 μM) and the corresponding changes CD spectra collected. Analysis of these spectra using CD tools and Dichroweb provides an ensemble average of the changes in secondary structure in the presence of POPC and POPG LUVs (dichroweb.cryst.bbk.ac.uk), which gives a direct measure of the binding free energies for each peptide.

[2] = Circular dichroism secondary structure (Dichroweb), with POPC; format: physicochemical
Experimental: as §1, §2

[3] = Circular dichroism secondary structure (Dichroweb), with POPG; format: physicochemical
Experimental: as §1, §2

[4] = ANTS/DPX leakage assay, POPC; format: biochemical; settings: P:L = 1:1000, pH 7 phosphate buffer
Experimental: (§3) 5 mM ANTS and 12.5 mM DPX were entrapped in 0.1 μm diameter extruded vesicles with lipids. Gel filtration chromatography of Sephadex G-100 (GE Healthcare Life Sciences Inc.) was used to remove external free ANTS/DPX from LUVs with entrapped contents. […] Leakage was measured after 3 hr incubation. 10% Triton was used as the positive control to measure the maximum leakage of the vesicle. Fluorescence emission spectra were recorded using excitation wavelength (Ex: 350 nm) and emission wavelength (Em: 510 nm) for ANTS/DPX using Synergy H1 Hybrid Multi-Mode Reader.
(§4) This detects and quantifies the release of a small fluorescent dye (ANTS/DPX; MW=˜400 Da) encapsulated in LUVs after addition of library peptides. Neutral POPC LUVs serve as a simple model for mammalian membranes, while charged POPG LUVs mimic bacterial membranes enriched in anionic lipids.

[5] = ANTS/DPX leakage assay, POPG; format: biochemical; settings: P:L = 1:1000, pH 7 phosphate buffer
Experimental: as §3, §4

[6] = 3-kDa dextran macromolecule release assay, POPG; format: biochemical; settings: P:L = 1:1000, pH 7 phosphate buffer
[7] = Pore-size characterization by 3-kDa dextran release; format: biochemical; settings: ‡Large pore for PG only
Text: Eight LDKA peptides with different lipid selectivity and pore sizes were selected from the high-throughput screen and sequenced. […] The most common mutation is L to A, occurred 13 times and in 7 out of the 8 peptides, followed by A to L, which occurred 6 times in 5 peptides, L to D which occurred 3 times in 3 peptides, and L to P that occurred once. Lysine (K) is not favorable to be shown at the position 6, 8, 10, 12, and 13, which is the non-polar face of the helical structure. […] More specifically, the analogs only induce leakage from anionic POPG vesicles have 4-5 leucines, which is less than the analogs that can porate both POPC and POPG vesicles and have 6-7 leucines in their sequences.

[8] = Membrane selectivity from high-throughput dye leakage screen; format: biochemical; settings: PC = POPC, PG = POPG
Text: as §4

S. aureus = assay: Bacterial minimum inhibitory concentration (MIC), S. aureus; format: cell-based, Staphylococcus aureus; settings: 75 μM maximum tested; NDA = not determinable
Experimental: (§5) Escherichia colt strain ATCC 25922, Staphylococcus aureus strain ATCC 25923, and Pseudomonas aeruginosa strain ATCC PAO1 were used in this study. Overnight cultures were subcultured to log phase (OD600=0.3-0.6) after which cell counts were determined by measuring the OD600 (OD600 1.0=1.5×10^8 CFU/mL for S. aureus, 5×10^8 CFU/mL for E. colt, and 2.04×10^8 CFU/mL for P. aeruginosa). Bacteria in minimal media mere added to serially diluted peptides and incubated for 3 hr, followed by the addition of full growth media. After overnight incubation, the optical density of the wells was recorded on a plate reader to determine whether they were sterilized (OD<0.08) or were at stationary phase growth (OD600>0.5). Intermediate values, which were rare, were considered positive for growth. Average minimum sterilizing concentrations were calculated from the lowest peptide concentration that sterilized the bacteria in each serial dilution. The samples were done in sextuplet.

[9] = system: methicillin-resistant Staphylococcus aureus (MRSA); format: cell-based; settings: 75 μM maximum tested; NDA = not determinable
P. aeruginosa = assay: Bacterial minimum inhibitory concentration (MIC), P. aeruginosa; format: cell-based, Pseudomonas aeruginosa; settings: 75 μM maximum tested; NDA = not determinable
Experimental: as §5

[10] = Tryptophan fluorescent binding assay
Text: To further investigate why some peptides (i.e. 7D12, 7G6, 11D12, 24F1, and 28H6) show selectivity for membrane types we measured peptide binding and secondary structural changes to vesicles containing binary mixtures of POPC and POPG lipids. FIGS. 10a-10e show the changes in the CD and tryptophan fluorescence spectra for these peptides upon addition of LUVs for whom the ratio of POPG was elevated from 0 to 100%. […] Consistent with the POPC/POPG leakage assay, these lipid selective peptides show little or no binding to POPC, which bind strongly to POPG. […] All other peptides have tryptophan fluorescence peaks around 350 nm, indicative of monomeric peptides. Addition of LUVs to 28H6 results in higher intensity and smaller width of the peak indicative of membrane binding. Remarkably, the CD spectra of 28H6 change from a helical aggregate in solution or POPC LUVs, to beta-strand conformations in the presence of anionic POPG lipids. Increasing the temperature of 28H6 with POPG vesicles can destabilize the beta-strand structure and reverse it to helix as the conformation of 28H6 with POPC (Table 8).

[11] = cited from earlier work
[12] = 3-kDa dextran macromolecule release assay, POPC; format: biochemical; settings: P:L = 1:1000, pH 7 phosphate buffer
Experimental: Several different size dextrans were prepared and labelled with both TAMRA and biotin. Conjugated dextran was entrapped in POPC LUVs as described above. External dextran was removed by incubation with immobilized streptavidin. Streptavidin labelled with an Alexa-488 fluorophore was added during the leakage experiment with the peptide as previous described.^5 The sample was then incubated for 3 hr before measuring Alexa-488 fluorescence. A control without added peptide served as the 0% leakage signal and addition of 0.05% vol. Triton X-100 was used to determine 100% leakage.

Hemolysis assay = format: cell-based, human; settings: human
Experimental: (§6) Fresh human red blood cells were obtained from Interstate Blood Bank, Inc., and thoroughly washed in PBS until the supernatant was clear. hRBC concentration was determined using a standard hemocytometer. In hemolysis assays serial dilutions of peptide were prepared, followed by the addition of 2×10^8 hRBC/mL. After incubation for 1 hr at 37° C. the cells were centrifuged and the released hemoglobin was measured by optical absorbance of the heme group (410 nm). Negative control was buffer only (0% lysis), and the positive control was 20 μM melittin and distilled water (100% lysis). The samples were done in triplicate.

human red blood cells = assay: Hemolysis assay; format: cell-based
Experimental: as §6

[13] = system: ciprofloxacin-resistant E. coli
Experimental: “N.D.” means “not determined”.
Ceftazidime is active on the bacteria's cell wall and interferes with bacterial cell wall formation.^38,39 Ciprofloxacin is able to inhibit DNA gyrase, type II topoisomerase, and topoisomerase IV to separate bacterial DNA and inhibits cell division.^40 Streptomycin and gentamicin are antibiotics that can interrupt and inhibit protein synthesis.^41,42 E. coli strain ATCC 25922 cultures were grown in the presence of each of these antibiotics at elevated concentration for 10 generations.

Escherichia coli biofilm = assay: Activity against biofilm, E. coli; format: cell-based; settings: 67-150 μM peptide, 3 hr treatment
Experimental: (§7) Selected analogues were tested with each (13A). Escherichia coli biofilm, (13B). Staphylococcus aureus biofilm, and (13C) Pseudomonas aeruginosa biofilm.
(§8) However, most of the LDKA analogues fail to treat S. aureus and P. aeruginosa biofilms. Only K7H and 7F3 are capable to reduce S. aureus biofilms by ˜50% with 100 μM peptide concentration, and none of the analogues work against P. aeruginosa biofilms (FIGS. 13a-13c).

[14] = system: Staphylococcus aureus biofilm; assay: Activity against biofilm, S. aureus; format: cell-based; settings: 100 μM peptide concentration, 3 hr treatment
Experimental: as §7, §8

[15] = provided by the distributor, GenScript

Substance | Peptide-only, Strand [1] [%] | Peptide-POPC, Helix ([2]; 20 °C) [%] | Peptide-POPC, Strand ([2]; 20 °C) [%] | Peptide-POPC, Helix ([2]; 45 °C) [%] | Peptide-POPC, Strand ([2]; 45 °C) [%] | Peptide-POPC, Helix ([2]; 70 °C) [%] | Peptide-POPC, Strand ([2]; 70 °C) [%] | Peptide-POPC, Helix ([2]; 95 °C) [%] | Peptide-POPC, Strand ([2]; 95 °C) [%] | Peptide-POPG, Helix ([3]; 20 °C) [%] | Peptide-POPG, Strand ([3]; 20 °C) [%] | Peptide-POPG, Helix ([3]; 45 °C) [%] | Peptide-POPG, Strand ([3]; 45 °C) [%] | Peptide-POPG, Helix ([3]; 70 °C) [%] | Peptide-POPG, Strand ([3]; 70 °C) [%] | Peptide-POPG, Helix ([3]; 95 °C) [%] | Peptide-POPG, Strand ([3]; 95 °C) [%] | ANTS/DPX release, POPC [4] [%] | ANTS/DPX release, POPG [5] [%] | 3-kDa Dextran release, POPG [6] [%] | other results
GLLDDAKLLAKLAGW-AMIDE (GLLDDAKLLAKLAGW-NH2) [Peptide 7D12] | 11 | 30 | 20 | 26 | 21 | 27 | 22 | 22 | 24 | 78 | 2 | 66 | 3 | 48 | 6 | 31 | 13 | 6 | 103 | 17 | Pore size [7]: Small; Membrane selectivity (POPC vs POPG vesicles) [8]: PG > PC; Minimum Inhibitory Concentration, S. aureus (S. aureus): no activity and NDA; Minimum Inhibitory Concentration, MRSA [9]: NDA; Minimum Inhibitory Concentration, P. aeruginosa (P. aeruginosa): no activity and NDA; Binding onto POPC [10]: does not bind; Solubility, DPBS pH 7.1 ([11]; pH 7.1): <0.1 mg/mL
H-GLLDLLKLLLKLAGW-NH2 [Peptide 28H6] | 4 | 58 | 10 | 64 | 6 | 68 | 6 | 65 | 3 | 18 | 32 | 23 | 29 | 27 | 25 | 55 | 7 | 99 | 105 | 67 | Peptide-only, Helix [1]: 63%; 3-kDa Dextran release, POPC [12]: 38%; Pore size [7]: Large; Membrane selectivity (POPC vs POPG vesicles) [8]: Non-selective; Minimum Inhibitory Concentration, S. aureus (S. aureus): NDA; Minimum Inhibitory Concentration, MRSA [9]: NDA; Minimum Inhibitory Concentration, P. aeruginosa (P. aeruginosa): NDA; HC50 at 1 hr (Hemolysis assay): 1200 nM; Hemolytic activity (in words) (human red blood cells): significantly haemolytic; Solubility, DMSO [11, 15]: 15000 µg/mL; Solubility, DPBS pH 7.1 [11, 15]: <0.1 mg/mL; Solubility, Ultrapure Water [11, 15]: 500 µg/mL
H-GLADLAKLLLKLLGW-NH2 [Peptide 7F3] | 4 | 82 | 1 | 77 | 2 | 76 | 3 | 70 | 4 | 52 | 12 | 58 | 7 | 66 | 2 | 76 | 2 | 88 | 106 | 46 | Peptide-only, Helix [1]: 75%; 3-kDa Dextran release, POPC [12]: -3%; Pore size [7]: Small; Membrane selectivity (POPC vs POPG vesicles) [8]: Non-selective; Minimum Inhibitory Concentration, P. aeruginosa (P. aeruginosa): NDA; HC50 at 1 hr (Hemolysis assay): 1100 nM; Hemolytic activity (in words) (human red blood cells): significantly haemolytic; MIC, ciprofloxacin-resistant E. coli [13]: completely fail; Elimination of E. coli biofilm (Escherichia coli biofilm): ~50%; Reduction of S. aureus biofilms [14]: ~50%; Solubility, DMSO [11, 15]: 15000 µg/mL; Solubility, DPBS pH 7.1 [11, 15]: <0.1 mg/mL; Solubility, Ultrapure Water [11, 15]: 5000 µg/mL

Source: US11059855B2, “Antimicrobial peptides and methods of making and using same” (priority 2017, dated 2021)
